The record followed here is patent US5324724A (priority 1990, dated 1994).

For test [1], the target named is muscarinic receptors. The test is described as follows: Displacement of muscarinic agonist 3H-Oxotremorine-M (3H-OXO-M) binding, cerebral cortex membranes. On the set-up: species or system Hooded Lister rats. Conditions: rat cerebral cortex; 2 nM 3H-OXO-M; 37° C., 30 min; E3 as hydrochloride salt, all others as oxalate salts.
For test [2], the target named is muscarinic receptors. It counts as binding, Hooded Lister rats. Conditions: rat cerebral cortex; 0.27 nM 3H-QNB; 37° C., 30 min; E3 as hydrochloride salt, all others as oxalate salts.

Read-outs that look alike come from different tables or passages of the source.

A word on the IC50: it is the point on the concentration scale where inhibition reaches its midpoint. `Nc1nncc(C23CCCN(CC2)C3)n1` (racemic) [Example E2, (±) 5-(3-Amino-l,2,4-triazin-5-yl)-1-azabicyclo[3.2.1]octane]: the IC50 was found to be 5 nM on muscarinic receptors [1] and 1110 nM on muscarinic receptors [2].

In the case of `Cc1nncc([C@@H]2CN3CC[C@@H]2C3)n1` (relative stereo) [Example E8a, 3-(3-Methyl-1,2,4-triazin-5-yl) -1-azabicyclo[2.2.1]heptane], the IC50 on muscarinic receptors [1] was found to be 3.1 nM; on muscarinic receptors [2], 255 nM.

Consider `COc1nncc(C23CCN(CC2)C3)n1` [Example E5, 4-(3-Methoxy-1,2,4-triazin-5-yl)-1-azabicyclo[2.2.1]heptane], for which the half-inhibitory concentration (IC50) at muscarinic receptors [1] turned out to be 1100 nM; on muscarinic receptors [2], 14000 nM.

Take `Nc1nncc(C23CCN(CC2)C3)n1` [Example E4, 4-(3-Amino-1,2,4-triazin-5-yl)-1-azabicyclo[2.2.1]heptane]: the IC50 at muscarinic receptors [1] worked out at 4 nM; on muscarinic receptors [2] it was 1490 nM.

As for `Cc1nncc(C23CCN(CC2)C3)n1` [Example E3, 4-(3-Methyl-1,2,4-triazin-5-yl)-1-azabicyclo[2.2.1]heptane], the IC50 was found to be 70 nM on muscarinic receptors [1] and 4400 nM at muscarinic receptors [2].

In the case of `Nc1nncc(C2CN3CCC2C3)n1` (racemic) [E9a & E9b, (±) exo and endo 3-(3-Amino-1,2,4-triazin-5-yl) -1-azabicyclo[2.2.1]heptane], the figures for the IC50 on muscarinic receptors [1] and at muscarinic receptors [2] were 1.1 nM and 320 nM, respectively.

Regarding `Cc1nncc(C23CCCN(CC2)C3)n1` (racemic) [Example E1, (±) 5-(3-Methyl-l,2,4-triazin-5-yl)-1-azabicyclo[3.2.1]octane], the values for the IC50 on muscarinic receptors [1] and at muscarinic receptors [2] were 33 nM and 1800 nM, respectively.

Take `Cc1nncc(C2CN3CCC2CC3)n1` (racemic) [Example E7, (±) 3-(3-Methyl-1,2,4-triazin-5-yl)-1-azabicyclo[2.2.2]octane]: the IC50 on muscarinic receptors [1] amounted to 3.3 nM; on muscarinic receptors [2], 175 nM.

For `Nc1nncc(C2CN3CCC2CC3)n1` (racemic) [Example E6, (±)3-(3-Amino-1,2,4-triazin-5-yl)-1-azabicyclo[2.2.2]octane], the IC50 on muscarinic receptors [1] stood at 11 nM; at muscarinic receptors [2], 2370 nM.

For the compound `CCc1nncc([C@@H]2CN3CC[C@@H]2C3)n1` (relative stereo) [Example E10, (±) exo and endo 3-(3-Ethyl-1,2,4-triazin-5-yl) -1-azabicyclo[2.2.1]heptane], the IC50 at muscarinic receptors [1] stood at 68 nM; on muscarinic receptors [2], 240 nM.
